Consider 23 molecules from patent US20160083400A1, “TRICYCLIC GUANIDINE DERIVATIVE” (Sunovion Pharmaceuticals Inc., priority 2014, published 2016).

As usually defined, the pIC50 is the negative decadic logarithm of the IC50, by convention in mol/L. What is called IC50 is the concentration that gives 50% inhibition. The low end stands for inhibition by little substance, the high end for a need for much substance.

Common to all, as to type: biochemical
One experiment addresses PDE1C (Homo sapiens, UniProt Q14123). Description: In vitro HTRF PDE1 inhibition assay (PDE1C). From the text:
(§1) An exemplary procedure for the in vitro Homogenous Time Resolved Fluorescence (HTRF) assay, which can be used to determine the inhibitory action of compounds of the invention toward PDE1 or its isoforms, follows.
(§2) The HTRF PDE1 assay utilized the HTRF technology, which is based on the competition between unlabeled cyclic nucleotide and cyclic nucleotide labeled with XL665 for the binding to cyclic nucleotide-specific antibody labeled with cryptate. The HTRF signal is thus inversely proportional to the concentration of cyclic nucleotide being measured. Since phosphodiesterases break down cyclic nucleotides the HTRF signal was used to determine PDE activity.
(§3) The Cisbio cGMP HTRF assay kit (Cat no: 62GM2PEC) was utilized. Cyclic GMP was diluted to 200 nM in HTRF assay buffer (1 mM CaCl2, 10 mM MgCl2, 10 mM Tris-HCl, 0.1% BSA, pH7.4). 10 μl of compound or DMSO was diluted in 200 nM cyclic GMP solution and added to wells of a 96 well white plate to give 100 nM cyclic GMP in 1% DMSO final concentration. PDE (1A3, 1B or 1C) was diluted to 2× working concentration in HTRF assay buffer with 4 μg/ml Calmodulin, and 10 μl was added to initiate the reaction. The plate was then incubated for 45 minutes at 37° C. d2-Labelled cyclic GMP and anti-cGMP cryptate were diluted in 50 mM phosphate buffer, 0.8M KF, 1% Triton X100, 0.2% BSA, pH7.0. Following incubation 10 μl d2-cGMP, then 10 μl anti cGMP cryptate were added to each well and the plate was incubated for 45 minutes at rt. The plate was then read on Perkin Elmer Victor at 2 different FRET readings ex/emm 340 nm/665 nm and 340 nm/615 nm.
(§4) Compounds having an IC50 of <1 μM, are denoted as +++. Compounds having an IC50 of 1-10 μM, are denoted as ++. Compounds having an IC50 of 10-100 μM, are denoted as +.
In general terms: In TR-FRET formats the signal depends on donor and acceptor labels being close together.

The target of a further experiment is PDE1B (Homo sapiens, UniProt Q01064). Description: In vitro HTRF PDE1 inhibition assay (PDE1B). Particulars: 100 nM cyclic GMP, calmodulin, 45 minutes at 37° C.
PDE1B, sequence (Q01064 whole entry): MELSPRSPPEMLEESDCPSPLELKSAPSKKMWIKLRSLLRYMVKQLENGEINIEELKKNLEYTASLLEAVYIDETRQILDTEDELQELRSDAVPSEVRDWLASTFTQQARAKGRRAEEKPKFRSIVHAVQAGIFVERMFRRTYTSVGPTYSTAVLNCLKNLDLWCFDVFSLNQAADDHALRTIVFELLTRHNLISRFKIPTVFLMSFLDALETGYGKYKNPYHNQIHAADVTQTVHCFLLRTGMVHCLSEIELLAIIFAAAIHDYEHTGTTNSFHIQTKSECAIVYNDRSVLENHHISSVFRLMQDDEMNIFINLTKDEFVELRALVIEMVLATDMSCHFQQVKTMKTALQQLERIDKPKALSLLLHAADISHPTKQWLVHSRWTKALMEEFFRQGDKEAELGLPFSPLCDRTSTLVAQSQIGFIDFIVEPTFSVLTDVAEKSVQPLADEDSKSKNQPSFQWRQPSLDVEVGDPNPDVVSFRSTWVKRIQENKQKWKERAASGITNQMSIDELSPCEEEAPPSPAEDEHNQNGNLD
Another experiment addresses PDE1A (PDE 1A3) (Homo sapiens, UniProt P54750). The experiment is described as follows: In vitro HTRF PDE1 inhibition assay (PDE1A). Particulars: PDE1A (1A3); 100 nM cyclic GMP, calmodulin, 45 minutes at 37° C.
Description: as §1, §2, §3, §4

pIC50: −log10 of the molar value.

PDE1C, sequence (Q14123 whole entry, canonical isoform): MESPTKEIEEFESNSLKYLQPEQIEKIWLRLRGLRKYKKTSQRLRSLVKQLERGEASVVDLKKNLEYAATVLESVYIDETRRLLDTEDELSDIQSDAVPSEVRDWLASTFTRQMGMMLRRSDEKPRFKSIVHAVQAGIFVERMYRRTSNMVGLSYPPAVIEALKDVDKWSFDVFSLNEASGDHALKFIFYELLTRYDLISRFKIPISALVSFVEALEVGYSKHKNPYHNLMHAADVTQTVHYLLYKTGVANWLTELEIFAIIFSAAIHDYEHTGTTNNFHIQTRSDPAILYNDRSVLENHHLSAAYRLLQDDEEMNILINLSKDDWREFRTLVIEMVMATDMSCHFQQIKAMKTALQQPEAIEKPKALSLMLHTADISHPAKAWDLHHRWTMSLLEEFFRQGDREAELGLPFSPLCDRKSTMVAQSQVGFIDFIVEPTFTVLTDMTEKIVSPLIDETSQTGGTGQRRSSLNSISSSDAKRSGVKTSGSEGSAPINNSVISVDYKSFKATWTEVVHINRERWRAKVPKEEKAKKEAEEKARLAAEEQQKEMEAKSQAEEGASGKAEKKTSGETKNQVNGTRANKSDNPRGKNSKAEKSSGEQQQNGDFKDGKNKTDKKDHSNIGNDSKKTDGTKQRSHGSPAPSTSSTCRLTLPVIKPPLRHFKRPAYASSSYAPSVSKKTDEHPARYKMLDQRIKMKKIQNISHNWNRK
PDE1A (PDE 1A3), sequence (P54750 whole entry): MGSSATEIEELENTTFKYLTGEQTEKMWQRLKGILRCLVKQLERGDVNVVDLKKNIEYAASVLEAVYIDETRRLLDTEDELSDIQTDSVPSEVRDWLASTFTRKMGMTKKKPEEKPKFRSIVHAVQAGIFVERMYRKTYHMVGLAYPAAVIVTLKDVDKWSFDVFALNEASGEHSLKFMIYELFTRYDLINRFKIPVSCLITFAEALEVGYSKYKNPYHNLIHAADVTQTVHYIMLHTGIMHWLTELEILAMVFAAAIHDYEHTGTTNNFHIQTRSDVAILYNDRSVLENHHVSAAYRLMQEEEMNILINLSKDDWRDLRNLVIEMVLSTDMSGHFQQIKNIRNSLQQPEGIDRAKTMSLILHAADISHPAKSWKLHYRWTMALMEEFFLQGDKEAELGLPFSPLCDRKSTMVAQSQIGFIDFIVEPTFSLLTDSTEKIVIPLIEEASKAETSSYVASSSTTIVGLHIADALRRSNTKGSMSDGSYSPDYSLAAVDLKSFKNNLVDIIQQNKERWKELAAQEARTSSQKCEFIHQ
Description for PDE1B: The Cisbio cGMP HTRF assay kit (Cat no: 62GM2PEC) was utilized. Cyclic GMP was diluted to 200 nM in HTRF assay buffer (1 mM CaCl2, 10 mM MgCl2, 10 mM Tris-HCl, 0.1% BSA, pH7.4). […] PDE (1A3, 1B or 1C) was diluted to 2× working concentration in HTRF assay buffer with 4 μg/ml Calmodulin, and 10 μl was added to initiate the reaction. The plate was then incubated for 45 minutes at 37° C. d2-Labelled cyclic GMP and anti-cGMP cryptate were diluted in 50 mM phosphate buffer, 0.8M KF, 1% Triton X100, 0.2% BSA, pH7.0. Following incubation 10 μl d2-cGMP, then 10 μl anti cGMP cryptate were added to each well and the plate was incubated for 45 minutes at rt. The plate was then read on Perkin Elmer Victor at 2 different FRET readings ex/emm 340 nm/665 nm and 340 nm/615 nm.

Consider `O=c1c2cnc(C3CCC3)n2nc2n1CC[C@H](c1ccc(Cl)cc1)N2` [Example 65], for which the pIC50 against PDE1C was more than 6.00. Moreover, the IC50 at PDE1B and on PDE1A (PDE 1A3) was less than 1 µM in each case.

`CC(C)c1ncc2c(=O)n3c(nn12)NCCC3` [Example 52] gave a pIC50 on PDE1C of 5.00 to 6.00. For the same molecule, the IC50 against PDE1B is less than 1 µM; against PDE1A (PDE 1A3) it was 1 to 10 µM.

Turning to `CO[C@H](C)c1ncc2c(=O)n3c(nn12)N[C@@H](c1ccc(Cl)cc1)CC3` [Example 260], on PDE1C, the pIC50 is 5.00 to 6.00. For the same molecule, the IC50 against PDE1B and against PDE1A (PDE 1A3) was less than 1 µM throughout.

Molecule `Cc1ccc([C@H]2CN3C(=O)c4cnc(C(C)C)n4NC3=N2)cc1` [Example 96, (2S)-8-Isopropyl-2-(4-methylphenyl)-2,10-dihydro-3H,5H-diimidazo[2,1-c:5′,1′-f][1,2,4]triazin-5-one] gave a pIC50 against PDE1C of more than 6.00. Also, the IC50 on PDE1B and on PDE1A (PDE 1A3) was less than 1 µM throughout.

On to `CC(C)n1ncc2c(=O)n3c(nc21)N[C@@H](c1ccc(Cl)cc1)C3` [Example 144], for which the pIC50 at PDE1C was more than 6.00. Moreover, the IC50 on PDE1B and against PDE1A (PDE 1A3) was less than 1 µM in each case.

Turning to `O=c1c2cnc(C3CCOCC3)n2nc2n1CCC(c1ccc(Cl)cc1)N2` (stereo not drawn) [Example 55], the pIC50 against PDE1C was 5.00 to 6.00. Also, the IC50 against PDE1B and against PDE1A (PDE 1A3) was less than 1 µM in each case.

On PDE1C, `CC(C)c1ncc2c(=O)n3c(nn12)NC(c1ccc(Cl)cc1)CC3` (stereo not drawn) [Example 46] had a pIC50 of 5.00 to 6.00. The values for the IC50 on PDE1B and against PDE1A (PDE 1A3) were less than 1 µM and 10 to 100 µM, respectively.

Consider `COC1(c2ncc3c(=O)n4c(nn23)N[C@@H](c2ccc(Cl)cc2)CC4)CC1` [Example 239], for which the pIC50 on PDE1C was 5.00 to 6.00. Also, the half-inhibitory concentration (IC50) against PDE1B and against PDE1A (PDE 1A3) was less than 1 µM throughout.

`CC[C@H](C)c1ncc2c(=O)n3c(nn12)N[C@@H](c1ccc(Cl)cc1)CC3` [Example 227]: the pIC50 on PDE1C is more than 6.00. The IC50 at PDE1B and at PDE1A (PDE 1A3) was less than 1 µM throughout.

Turning to `CO[C@@H](C)c1ncc2c(=O)n3c(nn12)N[C@@H](c1ccc(Cl)cc1)CC3` [Example 259], the pIC50 against PDE1C is more than 6.00. Further, the IC50 at PDE1B and against PDE1A (PDE 1A3) was less than 1 µM in each case.

`O=c1c2cnc(C3CCCC3)n2nc2n1CC[C@H](c1ccc(Cl)cc1)N2` [Example 61] gave a pIC50 at PDE1C of more than 6.00. The IC50 against PDE1B and against PDE1A (PDE 1A3) was less than 1 µM throughout.

Consider `O=c1c2cnc(C3CCOCC3)n2nc2n1CC[C@H](c1ccc(Cl)cc1)N2` [Example 69, (2R)-2-(4-Chlorophenyl)-9-(tetrahydro-2H-pyran-4-yl)-1,2,3,4-tetrahydro-6H-imidazo[5,1-f]pyrimido[2,1-c][1,2,4]triazin-6-one], for which the pIC50 against PDE1C was more than 6.00. Moreover, the IC50 against PDE1B and against PDE1A (PDE 1A3) was less than 1 µM in each case.

`CC(C)(O)c1ncc2c(=O)n3c(nn12)N[C@@H](c1ccc(Cl)cc1)CC3` [Example 242]: the pIC50 against PDE1C is 5.00 to 6.00. In addition, the IC50 against PDE1B and against PDE1A (PDE 1A3) was less than 1 µM throughout.

With `CC(C)n1ncc2c(=O)n3c(nc21)NC(c1ccc(C(F)(F)F)cc1)CC3` (stereo not drawn) [Example 29], the pIC50 against PDE1C was 5.00 to 6.00. Also, the IC50 against PDE1B and against PDE1A (PDE 1A3) was less than 1 µM each time.

Consider `O=c1c2ncnc(C3CCOCC3)c2nc2n1CCC(c1ccc(Cl)cc1)N2` (stereo not drawn) [Example 265, 7-(4-Chlorophenyl)-4-(tetrahydro-2H-pyran-4-yl)-5,7,8,9-tetrahydro-11H-dipyrimido[1,2-a:5′,4′-d]pyrimidin-11-one], for which, on PDE1C, the pIC50 was 5.00 to 6.00. Besides, the IC50 on PDE1B and against PDE1A (PDE 1A3) was less than 1 µM throughout.

For `CC[C@@H](C)c1ncc2c(=O)n3c(nn12)N[C@@H](c1ccc(Cl)cc1)CC3` [Example 226], the pIC50 against PDE1C is more than 6.00. The IC50 against PDE1B and against PDE1A (PDE 1A3) was less than 1 µM throughout.

In turn, `CC(C)c1ncnc2c(=O)n3c(nc12)NC(c1ccc(Cl)cc1)CC3` (stereo not drawn) [Example 176] showed a pIC50 against PDE1C of 5.00 to 6.00. In addition, the IC50 against PDE1B and against PDE1A (PDE 1A3) was less than 1 µM throughout.

With `CC(C)c1ncc2c(=O)n3c(nn12)N[C@@H](c1ccc(Cl)cc1)CC3` [Example 18, (2R)-2-(4-Chlorophenyl)-9-isopropyl-1,2,3,4-tetrahydro-6H-imidazo[5,1-f]pyrimido[2,1-c][1,2,4]triazin-6-one], the pIC50 against PDE1C is 5.00 to 6.00. Besides, the IC50 at PDE1B and against PDE1A (PDE 1A3) was less than 1 µM in each case.

In turn, `CC(C)n1ncc2c(=O)n3c(nc21)N[C@@H](c1ccc(Cl)cc1)CC3` [Example 27] gave a pIC50 at PDE1C of 5.00 to 6.00. Further, the IC50 against PDE1B and against PDE1A (PDE 1A3) was less than 1 µM each time.

As to `O=c1c2cnc(C3CCOCC3)n2nc2n1C[C@H](c1ccc(Cl)cc1)N2` [Example 139], the pIC50 at PDE1C was 5.00 to 6.00. For the same molecule, the IC50 at PDE1B and against PDE1A (PDE 1A3) was less than 1 µM throughout.

Regarding `O=c1c2cnc([C@@H]3CCOC3)n2nc2n1CC[C@H](c1ccc(Cl)cc1)N2` [Example 224], the pIC50 against PDE1C is 5.00 to 6.00. Moreover, the IC50 on PDE1B and against PDE1A (PDE 1A3) was less than 1 µM throughout.

`O=c1c2cnc(C3COC3)n2nc2n1CC[C@H](c1ccc(Cl)cc1)N2` [Example 165] gave a pIC50 at PDE1C of 5.00 to 6.00. The IC50 on PDE1B and at PDE1A (PDE 1A3) was less than 1 µM in each case.

Consider `COc1ccc([C@H]2Cn3c(nn4c(C5CCOCC5)ncc4c3=O)N2)cc1` [Example 151, (2S)-2-(4-Methoxyphenyl)-8-(tetrahydro-2H-pyran-4-yl)-2,10-dihydro-3H,5H-diimidazo[2,1-c:5′,1′-f][1,2,4]triazin-5-one], for which the pIC50 on PDE1C was more than 6.00. The IC50 on PDE1B and at PDE1A (PDE 1A3) was less than 1 µM in each case.
